Measurements taken from US20120122860A1, “SOLID FORMS OF SULFONAMIDES AND AMINO ACIDS” (Plexxikon, Inc., priority 2009, published 2012).

Experiments:
[1] = biological target: B-Raf (Homo sapiens, UniProt P15056); assay: Kinase activity assay, B-Raf; assay type: biochemical; details: read-out: activity toward kinase B-Raf, IC50
[2] = biological target: B-Raf V600E (Homo sapiens, UniProt P15056, V600E); assay: Kinase activity assay, B-Raf V600E; assay type: biochemical; details: read-out: activity toward kinase B-Raf V600E, IC50
[3] = biological target: Kdr (Homo sapiens, UniProt P35968); assay: Kinase activity assay, Kdr
[4] = biological target: Kit (Homo sapiens, UniProt P10721); assay: Kinase activity assay, Kit
[5] = biological target: Src (Homo sapiens, UniProt P12931); assay: Kinase activity assay, Src
[6] = biological target: T1, A-Raf (Homo sapiens, UniProt P10398); assay: Kinase activity assay, A-Raf
T1 sequence (P10398 1-606): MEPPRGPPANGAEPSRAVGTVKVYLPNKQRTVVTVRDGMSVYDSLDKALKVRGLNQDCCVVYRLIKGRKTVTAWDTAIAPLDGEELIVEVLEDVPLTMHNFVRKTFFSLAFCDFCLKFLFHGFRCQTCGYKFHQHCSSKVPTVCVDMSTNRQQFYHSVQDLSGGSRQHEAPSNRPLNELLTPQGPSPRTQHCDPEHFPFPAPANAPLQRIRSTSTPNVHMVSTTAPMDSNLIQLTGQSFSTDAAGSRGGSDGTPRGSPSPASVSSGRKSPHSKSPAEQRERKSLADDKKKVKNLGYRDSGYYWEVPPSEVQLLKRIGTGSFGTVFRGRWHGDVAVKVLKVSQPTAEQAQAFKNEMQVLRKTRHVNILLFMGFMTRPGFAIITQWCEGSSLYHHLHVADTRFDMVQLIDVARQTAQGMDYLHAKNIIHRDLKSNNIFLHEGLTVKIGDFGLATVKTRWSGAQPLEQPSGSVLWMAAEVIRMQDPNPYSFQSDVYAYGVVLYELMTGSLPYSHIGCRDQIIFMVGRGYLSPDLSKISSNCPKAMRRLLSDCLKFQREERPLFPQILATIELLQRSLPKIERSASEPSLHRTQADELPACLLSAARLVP

[7] = biological target: C-Raf (Homo sapiens, UniProt P04049); assay: Kinase activity assay, C-Raf
[8] = biological target: MAP4K4 (Homo sapiens, UniProt O95819); assay: Kinase activity assay, MAP4K4

Measured: IC50

MAP4K4, sequence (O95819 whole entry): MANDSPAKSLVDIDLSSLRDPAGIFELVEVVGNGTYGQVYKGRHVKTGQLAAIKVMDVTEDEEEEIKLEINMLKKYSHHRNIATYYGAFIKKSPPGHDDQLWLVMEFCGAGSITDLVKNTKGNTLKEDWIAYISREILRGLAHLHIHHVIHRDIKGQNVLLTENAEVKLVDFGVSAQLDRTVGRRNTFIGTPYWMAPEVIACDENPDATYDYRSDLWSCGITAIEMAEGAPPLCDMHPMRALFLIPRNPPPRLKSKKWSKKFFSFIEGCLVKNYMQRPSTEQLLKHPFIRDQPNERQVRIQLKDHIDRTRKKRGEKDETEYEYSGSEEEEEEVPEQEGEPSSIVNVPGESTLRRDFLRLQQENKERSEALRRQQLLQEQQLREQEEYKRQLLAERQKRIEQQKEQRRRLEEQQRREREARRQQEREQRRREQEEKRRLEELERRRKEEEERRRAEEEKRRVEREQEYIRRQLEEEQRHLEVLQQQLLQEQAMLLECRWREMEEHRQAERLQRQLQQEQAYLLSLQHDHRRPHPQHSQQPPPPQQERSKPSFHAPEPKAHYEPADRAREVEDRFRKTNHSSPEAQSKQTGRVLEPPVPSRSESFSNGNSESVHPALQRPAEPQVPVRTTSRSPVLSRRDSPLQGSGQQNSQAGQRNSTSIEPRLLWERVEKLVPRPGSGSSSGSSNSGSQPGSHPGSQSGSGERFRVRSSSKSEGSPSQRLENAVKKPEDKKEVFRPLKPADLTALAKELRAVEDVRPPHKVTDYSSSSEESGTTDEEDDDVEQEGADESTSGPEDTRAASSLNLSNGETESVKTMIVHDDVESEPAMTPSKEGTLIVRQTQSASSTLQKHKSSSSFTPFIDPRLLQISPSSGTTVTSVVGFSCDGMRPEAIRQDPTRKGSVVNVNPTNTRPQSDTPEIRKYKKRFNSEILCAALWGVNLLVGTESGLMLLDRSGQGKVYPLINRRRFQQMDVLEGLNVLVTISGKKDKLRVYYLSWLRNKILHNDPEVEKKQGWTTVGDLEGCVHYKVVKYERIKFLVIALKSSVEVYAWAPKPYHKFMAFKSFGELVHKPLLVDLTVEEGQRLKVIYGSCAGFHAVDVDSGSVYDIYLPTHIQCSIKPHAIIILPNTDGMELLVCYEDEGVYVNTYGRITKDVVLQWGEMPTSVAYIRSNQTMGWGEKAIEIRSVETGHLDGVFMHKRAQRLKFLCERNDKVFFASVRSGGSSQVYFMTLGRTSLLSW
Kdr, sequence (P35968 20-1356): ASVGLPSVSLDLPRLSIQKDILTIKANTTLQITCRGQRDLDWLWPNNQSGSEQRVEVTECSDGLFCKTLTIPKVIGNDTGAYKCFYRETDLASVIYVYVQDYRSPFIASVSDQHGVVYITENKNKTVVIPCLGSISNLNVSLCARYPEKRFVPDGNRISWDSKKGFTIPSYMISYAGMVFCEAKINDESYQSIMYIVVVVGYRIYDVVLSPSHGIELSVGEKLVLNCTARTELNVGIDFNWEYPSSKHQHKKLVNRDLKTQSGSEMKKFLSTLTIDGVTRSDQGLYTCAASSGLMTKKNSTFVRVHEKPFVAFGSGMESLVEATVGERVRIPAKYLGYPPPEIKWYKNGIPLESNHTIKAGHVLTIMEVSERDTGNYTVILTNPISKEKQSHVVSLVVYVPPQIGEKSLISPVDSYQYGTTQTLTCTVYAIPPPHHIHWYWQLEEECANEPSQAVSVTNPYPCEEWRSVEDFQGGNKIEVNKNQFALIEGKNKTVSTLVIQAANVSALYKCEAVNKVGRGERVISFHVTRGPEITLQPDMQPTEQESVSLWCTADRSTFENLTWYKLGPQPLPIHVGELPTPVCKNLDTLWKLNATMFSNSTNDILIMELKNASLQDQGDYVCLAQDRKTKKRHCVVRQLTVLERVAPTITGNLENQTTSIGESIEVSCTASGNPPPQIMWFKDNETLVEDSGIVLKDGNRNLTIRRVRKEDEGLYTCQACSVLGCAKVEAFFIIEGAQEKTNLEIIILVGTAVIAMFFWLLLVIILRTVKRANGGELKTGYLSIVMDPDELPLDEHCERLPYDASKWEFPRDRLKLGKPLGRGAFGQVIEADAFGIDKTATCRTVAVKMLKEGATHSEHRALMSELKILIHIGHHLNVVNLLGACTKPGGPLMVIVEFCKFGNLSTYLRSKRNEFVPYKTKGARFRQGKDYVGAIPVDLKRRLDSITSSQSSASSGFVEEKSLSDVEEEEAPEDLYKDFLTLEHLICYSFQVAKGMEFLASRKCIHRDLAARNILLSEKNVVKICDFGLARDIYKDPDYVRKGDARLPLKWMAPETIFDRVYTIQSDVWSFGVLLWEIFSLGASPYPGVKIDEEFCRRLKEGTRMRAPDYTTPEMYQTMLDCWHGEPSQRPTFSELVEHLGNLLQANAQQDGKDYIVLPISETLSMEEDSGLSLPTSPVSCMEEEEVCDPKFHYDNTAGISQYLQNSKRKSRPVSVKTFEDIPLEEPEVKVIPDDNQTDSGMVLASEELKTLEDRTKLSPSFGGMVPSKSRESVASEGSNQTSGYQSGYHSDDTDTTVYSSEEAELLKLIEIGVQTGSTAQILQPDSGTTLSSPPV
B-Raf, sequence (P15056 whole entry): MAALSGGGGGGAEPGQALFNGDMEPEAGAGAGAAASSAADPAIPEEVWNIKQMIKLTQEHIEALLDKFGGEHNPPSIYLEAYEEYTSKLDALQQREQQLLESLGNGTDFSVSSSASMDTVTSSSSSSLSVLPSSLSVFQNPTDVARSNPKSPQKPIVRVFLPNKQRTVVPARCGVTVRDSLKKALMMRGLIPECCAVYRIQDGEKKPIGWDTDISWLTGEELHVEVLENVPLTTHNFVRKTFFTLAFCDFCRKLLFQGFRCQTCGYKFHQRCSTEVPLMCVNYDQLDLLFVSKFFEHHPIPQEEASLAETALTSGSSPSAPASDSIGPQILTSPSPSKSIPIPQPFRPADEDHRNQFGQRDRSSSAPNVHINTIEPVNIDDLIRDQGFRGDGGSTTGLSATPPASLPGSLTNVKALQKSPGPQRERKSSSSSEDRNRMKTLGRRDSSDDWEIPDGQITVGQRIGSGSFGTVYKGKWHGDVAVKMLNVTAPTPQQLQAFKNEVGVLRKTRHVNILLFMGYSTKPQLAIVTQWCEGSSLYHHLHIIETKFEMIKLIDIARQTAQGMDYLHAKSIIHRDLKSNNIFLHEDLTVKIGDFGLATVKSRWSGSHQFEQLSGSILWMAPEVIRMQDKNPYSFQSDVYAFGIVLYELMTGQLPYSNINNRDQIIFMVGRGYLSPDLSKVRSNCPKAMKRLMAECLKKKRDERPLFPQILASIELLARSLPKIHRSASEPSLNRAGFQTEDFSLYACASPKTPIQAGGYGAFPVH
Kit, sequence (P10721 26-976): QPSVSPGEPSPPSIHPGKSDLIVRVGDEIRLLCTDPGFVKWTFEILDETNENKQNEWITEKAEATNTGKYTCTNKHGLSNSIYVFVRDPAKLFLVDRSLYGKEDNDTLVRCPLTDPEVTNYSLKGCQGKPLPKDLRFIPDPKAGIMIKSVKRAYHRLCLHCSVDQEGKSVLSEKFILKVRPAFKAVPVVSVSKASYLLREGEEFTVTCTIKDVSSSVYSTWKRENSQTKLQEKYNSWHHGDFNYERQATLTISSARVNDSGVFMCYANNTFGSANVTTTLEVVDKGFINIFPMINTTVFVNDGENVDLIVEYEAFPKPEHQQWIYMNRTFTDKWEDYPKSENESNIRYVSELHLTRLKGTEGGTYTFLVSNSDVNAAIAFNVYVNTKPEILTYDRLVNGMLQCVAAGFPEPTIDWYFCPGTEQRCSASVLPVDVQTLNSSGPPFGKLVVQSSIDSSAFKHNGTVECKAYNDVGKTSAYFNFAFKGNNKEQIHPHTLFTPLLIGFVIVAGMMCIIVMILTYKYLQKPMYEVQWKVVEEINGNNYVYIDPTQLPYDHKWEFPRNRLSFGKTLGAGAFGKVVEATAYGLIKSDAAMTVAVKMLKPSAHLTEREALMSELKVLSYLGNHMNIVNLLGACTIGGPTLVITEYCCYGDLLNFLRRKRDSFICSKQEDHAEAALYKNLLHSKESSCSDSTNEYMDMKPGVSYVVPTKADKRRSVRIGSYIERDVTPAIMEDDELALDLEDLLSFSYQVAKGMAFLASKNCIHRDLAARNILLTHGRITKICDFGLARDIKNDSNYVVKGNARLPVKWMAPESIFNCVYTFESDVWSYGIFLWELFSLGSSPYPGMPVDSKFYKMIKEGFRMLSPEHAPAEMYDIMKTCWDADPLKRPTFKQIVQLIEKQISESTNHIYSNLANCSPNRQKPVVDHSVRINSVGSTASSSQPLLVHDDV
B-Raf V600E, sequence (P15056 whole entry V600E): as the sequence (P15056 whole entry) above, with V600E counted along it
C-Raf, sequence (P04049 whole entry): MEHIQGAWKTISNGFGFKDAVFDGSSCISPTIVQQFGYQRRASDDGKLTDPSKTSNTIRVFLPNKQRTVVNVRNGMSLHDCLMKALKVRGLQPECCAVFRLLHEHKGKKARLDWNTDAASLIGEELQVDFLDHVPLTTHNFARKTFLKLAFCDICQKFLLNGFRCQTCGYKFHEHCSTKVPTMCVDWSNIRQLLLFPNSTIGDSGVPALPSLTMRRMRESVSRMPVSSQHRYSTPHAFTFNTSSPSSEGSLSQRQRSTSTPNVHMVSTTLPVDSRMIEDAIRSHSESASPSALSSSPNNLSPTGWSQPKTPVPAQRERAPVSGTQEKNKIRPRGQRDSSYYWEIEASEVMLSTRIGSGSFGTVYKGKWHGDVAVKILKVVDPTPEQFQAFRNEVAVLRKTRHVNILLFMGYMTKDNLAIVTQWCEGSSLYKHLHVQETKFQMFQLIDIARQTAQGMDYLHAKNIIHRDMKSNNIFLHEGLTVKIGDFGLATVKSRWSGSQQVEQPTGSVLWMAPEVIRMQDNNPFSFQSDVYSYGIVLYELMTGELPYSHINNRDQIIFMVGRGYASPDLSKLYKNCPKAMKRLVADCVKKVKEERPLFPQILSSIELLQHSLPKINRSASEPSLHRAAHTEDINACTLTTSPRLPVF

Cc1cnc2[nH]cc(C(=O)c3c(F)ccc(NS(=O)(=O)c4cccc(F)c4)c3F)c2c1 [P-2016, N-[2,4-Difluoro-3-(5-methyl-1H-pyrrolo[2,3-b]pyridine-3-carbonyl)-phenyl]-3-fluoro-benzenesulfonamide]
≤ 10 µM: all assays above

O=C(c1c(F)ccc(NS(=O)(=O)c2cccc(F)c2)c1F)c1c[nH]c2nccc(Cl)c12 [P-2019, N-[3-(4-Chloro-1H-pyrrolo[2,3-b]pyridine-3-carbonyl)-2,4-difluoro-phenyl]-3-fluoro-benzenesulfonamide]
≤ 10 µM: all assays above

N#Cc1ccnc2[nH]cc(C(=O)c3c(F)ccc(NS(=O)(=O)c4cc(F)ccc4F)c3F)c12 [P-2036, N-[3-(4-Cyano-1H-pyrrolo[2,3-b]pyridine-3-carbonyl)-2,4-difluoro-phenyl]-2,5-difluoro-benzenesulfonamide]
≤ 10 µM: all assays above

CCCS(=O)(=O)Nc1ccc(F)c(C(=O)c2c[nH]c3ncc(-c4ccc(N5CCCC5)nc4)cc23)c1F [P-2231, Propane-1-sulfonic acid {2,4-difluoro-3-[5-(6-pyrrolidin-1-yl-pyridin-3-yl)-1H-pyrrolo[2,3-b]pyridine-3-carbonyl]-phenyl}-amide]
≤ 10 µM: all assays above

CCS(=O)(=O)Nc1ccc(F)c(C(=O)c2c[nH]c3ncc(OC)cc23)c1F [P-2272, Ethanesulfonic acid [2,4-difluoro-3-(5-methoxy-1H-pyrrolo[2,3-b]pyridine-3-carbonyl)-phenyl]-amide]
≤ 10 µM: all assays above

CC(C)S(=O)(=O)Nc1ccc(F)c(C(=O)c2c[nH]c3ncc(Cl)cc23)c1F [P-2275, Propane-2-sulfonic acid [3-(5-chloro-1H-pyrrolo[2,3-b]pyridine-3-carbonyl)-2,4-difluoro-phenyl]-amide]
≤ 10 µM: all assays above

CS(=O)(=O)Nc1ccc(F)c(C(=O)c2c[nH]c3nccc(Cl)c23)c1F [P-2290, N-[3-(4-Chloro-1H-pyrrolo[2,3-b]pyridine-3-carbonyl)-2,4-difluoro-phenyl]-methanesulfonamide]
≤ 10 µM: all assays above

COc1cnc2[nH]cc(C(=O)c3c(F)ccc(NS(=O)(=O)CCC(F)(F)F)c3F)c2c1 [P-2327, 3,3,3-Trifluoro-propane-1-sulfonic acid [2,4-difluoro-3-(5-methoxy-1H-pyrrolo[2,3-b]pyridine-3-carbonyl)-phenyl]-amide]
≤ 10 µM: all assays above

Cc1cnc2[nH]cc(C(=O)c3c(F)ccc(NS(=O)(=O)CCC(F)(F)F)c3F)c2c1 [P-2328, 3,3,3-Trifluoro-propane-1-sulfonic acid [2,4-difluoro-3-(5-methyl-1H-pyrrolo[2,3-b]pyridine-3-carbonyl)-phenyl]-amide]
≤ 10 µM: all assays above

O=C(c1c(F)ccc(NS(=O)(=O)CCC(F)(F)F)c1F)c1c[nH]c2nccc(Cl)c12 [P-2329, 3,3,3-Trifluoro-propane-1-sulfonic acid [3-(4-chloro-1H-pyrrolo[2,3-b]pyridine-3-carbonyl)-2,4-difluoro-phenyl]-amide]
≤ 10 µM: all assays above

COc1cnc2[nH]cc(C(=O)c3c(F)ccc(NS(=O)(=O)CC(F)(F)F)c3F)c2c1 [P-2335, 2,2,2-Trifluoro-ethanesulfonic acid [2,4-difluoro-3-(5-methoxy-1H-pyrrolo[2,3-b]pyridine-3-carbonyl)-phenyl]-amide]
≤ 10 µM: all assays above

O=C(c1c(F)ccc(NS(=O)(=O)CC(F)(F)F)c1F)c1c[nH]c2nccc(Cl)c12 [P-2338, 2,2,2-Trifluoro-ethanesulfonic acid [3-(4-chloro-1H-pyrrolo[2,3-b]pyridine-3-carbonyl)-2,4-difluoro-phenyl]-amide]
≤ 10 µM: all assays above

COc1cnc2[nH]cc(C(=O)c3c(F)ccc(NS(=O)(=O)C(F)(F)F)c3F)c2c1 [P-2347, N-[2,4-Difluoro-3-(5-methoxy-1H-pyrrolo[2,3-b]pyridine-3-carbonyl)-phenyl]-C,C,C-trifluoro-methanesulfonamide]
≤ 10 µM: all assays above

O=C(c1c(F)ccc(NS(=O)(=O)N2CCCC2)c1F)c1c[nH]c2ncc(Cl)cc12 [P-2375, Pyrrolidine-1-sulfonic acid [3-(5-chloro-1H-pyrrolo[2,3-b]pyridine-3-carbonyl)-2,4-difluoro-phenyl]-amide]
≤ 10 µM: all assays above
